Measurements as given in patent publication US8344153B2, “Inhibitors of phosphatidylinositol 3-kinase” (Vertex Pharmaceuticals Incorporated, priority 2009, dated 2013).

Molecular target: PI3K-γ (Homo sapiens, UniProt P48736)
Test: PI3K Inhibition Assay (33P-ATP, PI(4,5)P2 substrate, filter plate scintillation counting)
Type: biochemical
Details: competitive tight binding Ki fit; 3 μM ATP, 30 μM PI(4,5)P2, 2 nM final enzyme, 30 min at 25° C.; read-out: Ki for the inhibition of PI3Ky
Procedure: One test well also contained 1.5 μL of DMSO with no compound. […] To initiate the reaction, 50 μL of ATP Mix [20 mM MgCl2, 6 μM ATP (100 μCi/μmole ^33P-ATP)] was added each well, followed by incubating the wells for 30 min. at 25° C. Final concentrations in each well were 50 mM HEPES 7.5, 10 mM MgCl2, 25 mM NaCl, 5 mM DTT, 0.1 mg/mL BSA, 30 μM PI(4,5)P2, 3 μM ATP, and the PI3K isoform of interest (see Table 3). Final compound concentrations in each well ranged from 10 μM to 1 nM.
After incubation, the reactions in each well were quenched by addition of 50 μL of stop solution [30% TCA/Water, 10 mM ATP]. […] 50 μL of scintillation fluid was added to each well and the plate read on a Perkin-Elmer TopCount™ NXT liquid scintillation counter to obtain ^33P-counts representing inhibition values.

Chain of PI3K-γ (P48736 whole entry, species assumed): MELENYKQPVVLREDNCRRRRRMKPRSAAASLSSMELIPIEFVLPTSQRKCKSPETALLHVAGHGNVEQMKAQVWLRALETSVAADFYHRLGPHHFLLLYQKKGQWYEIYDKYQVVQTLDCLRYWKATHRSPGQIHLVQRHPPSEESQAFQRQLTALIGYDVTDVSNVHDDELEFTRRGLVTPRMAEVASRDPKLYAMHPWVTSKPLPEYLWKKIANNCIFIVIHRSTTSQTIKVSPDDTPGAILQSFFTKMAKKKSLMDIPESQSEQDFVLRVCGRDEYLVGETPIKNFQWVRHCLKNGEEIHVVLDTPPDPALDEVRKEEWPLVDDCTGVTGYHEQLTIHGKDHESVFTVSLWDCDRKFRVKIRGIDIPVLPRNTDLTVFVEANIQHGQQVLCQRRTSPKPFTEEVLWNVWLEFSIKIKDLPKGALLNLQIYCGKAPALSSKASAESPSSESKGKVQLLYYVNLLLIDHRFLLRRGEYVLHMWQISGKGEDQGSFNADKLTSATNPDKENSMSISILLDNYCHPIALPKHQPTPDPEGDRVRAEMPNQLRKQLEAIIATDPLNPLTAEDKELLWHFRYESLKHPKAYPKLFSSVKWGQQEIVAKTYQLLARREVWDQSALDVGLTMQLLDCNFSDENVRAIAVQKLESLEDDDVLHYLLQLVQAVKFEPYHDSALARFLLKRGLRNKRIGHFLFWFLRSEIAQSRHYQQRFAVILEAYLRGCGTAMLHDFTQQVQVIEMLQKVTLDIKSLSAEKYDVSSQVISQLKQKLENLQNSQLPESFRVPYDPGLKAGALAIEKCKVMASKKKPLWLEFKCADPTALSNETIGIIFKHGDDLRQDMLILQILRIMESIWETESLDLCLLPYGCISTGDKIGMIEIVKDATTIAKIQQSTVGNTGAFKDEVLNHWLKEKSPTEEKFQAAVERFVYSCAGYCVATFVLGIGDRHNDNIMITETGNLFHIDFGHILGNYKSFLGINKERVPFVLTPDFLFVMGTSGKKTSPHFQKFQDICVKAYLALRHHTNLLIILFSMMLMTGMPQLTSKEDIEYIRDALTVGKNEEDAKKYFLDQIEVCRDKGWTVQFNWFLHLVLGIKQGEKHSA

- Ki: < 50 nM
SMILES: CCOCCNC(=O)Nc1nc(C)c(C#Cc2ccncc2)s1 [Compound 26]
